According to patent US20200331882A1, “COMPOUND FOR SIMULTANEOUSLY INHIBITING LSD1 AND HDAC TARGETS AND APPLICATION THEREOF” (PEKING UNIVERSITY SHENZHEN GRADUATE SCHOOL, priority 2018, published 2020):
Like-named read-outs stand apart in the source and are kept apart here.

What was measured:
Assay in all cases: CellTiter-Glo cell proliferation
Assay type in all cases: cell-based
[1] = system: MCF7; details: CTG, 72 hours; for % inhibition at top conc.: highest concentration 10/50 μM
Protocol: (§1) The effect of the present invention compound ZZY-003 on the cell proliferation of 50 cell lines was evaluated by CellTiter-Glo (CTG) method, and the 50% inhibitory concentration was calculated by detecting the cell viability after treatment with different drug concentrations. The cells were resuscitated and cultured in their respective culture media. The cells in logarithmic growth phase were harvested and the cells were counted by cell counter. The cell viability was detected by Trypan blue exclusion method to ensure that the cell line viability was more than 96%. The cell concentration was adjusted by diluting with the culture medium, and 90 μL cell suspension was added to the 96-well cell plate (including the cell control T0 on the day of drug treatment) to make the cell density reach the specified concentration. The cells in the 96-well plate were cultured overnight at 37° C., 5% CO2 and 95% humidity. 10 μL culture medium was added to the control cell culture plate. CellTiter-Glo reagent and cell culture plate were placed at room temperature to balance for 30 minutes. The same volume of CellTiter-Glo reagent was added to each well. Vibrate on the orbital shaker for 2 min to make the cells fully lytic. The cell culture plate was placed at room temperature to balance for 10 minutes. Chemiluminescence values were read with EnVision. The storage solution was formed by dissolving the tested compound with the corresponding solvent and diluted in gradient to obtain 10 times working concentration solution, and 10 times solution of positive drug was also prepared. 10 μL drug solution was added to each well in the 96-well plate in which the cells were inoculated, and each cell concentration was provided with three duplicate wells. The highest concentration of the tested compound was 10/50 μM, 9 concentrations and 3.16 times dilution. The cells in the 96-well plate added with drug were cultured at 37° C., 5% CO2 and 95% humidity for 72 hours. CellTiter-Glo reagent and drug-treated cell culture plate were placed at room temperature to balance for 30 minutes. The same volume of CellTiter-Glo reagent was added to each well. Vibrate on the orbital shaker for 2 minutes to make the cells fully lytic. The cell culture plate was placed at room temperature to balance for 10 minutes. Chemiluminescence values were read with EnVision. Data processing: […] Cell survival rate (%)=(Lum drug to be detected−Lum culture medium control)/(Lum cell control−Lum culture medium control)×100%; Lum cell control−Lum culture medium control was set to 100%, LumMedium control value was set to 0%;

[2] = system: NCI-H1417; details: CTG, 72 hours; for % inhibition at top conc.: highest concentration 10/50 μM; for IC50: read-out: Absolute IC50
Protocol: as §1

[3] = system: SNU-761; details: CTG, 72 hours; for % inhibition at top conc.: highest concentration 10/50 μM; for IC50: read-out: Absolute IC50
Protocol: as §1

[4] = system: CNE-2Z; details: CTG, 72 hours; for % inhibition at top conc.: highest concentration 10/50 μM; for IC50: read-out: Absolute IC50
Protocol: as §1

[5] = system: PANC-1; details: CTG, 72 hours; for % inhibition at top conc.: highest concentration 10/50 μM; for IC50: read-out: Absolute IC50
Protocol: as §1

[6] = system: MDA-MB-231; details: CTG, 72 hours; for % inhibition at top conc.: highest concentration 10/50 μM
Protocol: as §1

[7] = system: HT-1376; details: CTG, 72 hours; for % inhibition at top conc.: highest concentration 10/50 μM; for IC50: read-out: Absolute IC50
Protocol: as §1

[8] = system: LN-229; details: CTG, 72 hours; for % inhibition at top conc.: highest concentration 10/50 μM; for IC50: read-out: Absolute IC50
Protocol: as §1

[9] = system: Hep G2; details: 72 hours; for % inhibition at top conc.: highest concentration 10/50 μM; for IC50: read-out: Absolute IC50
Protocol: as §1

[10] = system: AN3 CA; details: CTG, 72 hours; for % inhibition at top conc.: highest concentration 10/50 μM; for IC50: read-out: Absolute IC50
Protocol: as §1

[11] = system: SK-MEL-28; details: CTG, 72 hours; for % inhibition at top conc.: highest concentration 10/50 μM; for IC50: read-out: Absolute IC50
Protocol: as §1

[12] = system: MOLM-13; details: CTG, 72 hours; for % inhibition at top conc.: highest concentration 10/50 μM; for IC50: read-out: Absolute IC50
Protocol: as §1

[13] = system: SK-OV-3; details: CTG, 72 hours; for % inhibition at top conc.: highest concentration 10/50 μM; for IC50: read-out: Absolute IC50
Protocol: as §1

[14] = system: U266B1; details: CTG, 72 hours; for % inhibition at top conc.: highest concentration 10/50 μM; for IC50: read-out: Absolute IC50
Protocol: as §1

[15] = system: SW480; details: CTG, 72 hours; for % inhibition at top conc.: highest concentration 10/50 μM; for IC50: read-out: Absolute IC50
Protocol: as §1

[16] = system: A549; details: CTG, 72 hours; for % inhibition at top conc.: highest concentration 10/50 μM
Protocol: as §1

[17] = system: T84; details: CTG, 72 hours; for % inhibition at top conc.: highest concentration 10/50 μM; for IC50: read-out: Absolute IC50
Protocol: as §1

[18] = system: U-937; details: CTG, 72 hours; for % inhibition at top conc.: highest concentration 10/50 μM; for IC50: read-out: Absolute IC50
Protocol: as §1

[19] = system: HL-60; details: CTG, 72 hours; for % inhibition at top conc.: highest concentration 10/50 μM; for IC50: read-out: Absolute IC50
Protocol: as §1

[20] = system: SK-N-FI; details: CTG, 72 hours; for % inhibition at top conc.: highest concentration 10/50 μM; for IC50: read-out: Absolute IC50
Protocol: as §1

[21] = system: BT474; details: 72 hours; for % inhibition at top conc.: highest concentration 10/50 μM; for IC50: read-out: Absolute IC50
Protocol: as §1

[22] = system: HeLa; details: CTG, 72 hours; for % inhibition at top conc.: highest concentration 10/50 μM; for IC50: read-out: Absolute IC50
Protocol: as §1

[23] = system: K-562; details: 72 hours; for % inhibition at top conc.: highest concentration 10/50 μM; for IC50: read-out: Absolute IC50
Protocol: as §1

[24] = system: DLD-1; details: CTG, 72 hours; for % inhibition at top conc.: highest concentration 10/50 μM; for IC50: read-out: Absolute IC50
Protocol: as §1

[25] = system: H69AR; details: CTG, 72 hours; for % inhibition at top conc.: highest concentration 10/50 μM; for IC50: read-out: Absolute IC50
Protocol: as §1

[26] = system: PC-3; details: CTG, 72 hours; for % inhibition at top conc.: highest concentration 10/50 μM; for IC50: read-out: Absolute IC50
Protocol: as §1

[27] = system: HCT-116; details: CTG, 72 hours; for % inhibition at top conc.: highest concentration 10/50 μM; for IC50: read-out: Absolute IC50
Protocol: as §1

[28] = system: B16-F10; details: CTG, 72 hours; for % inhibition at top conc.: highest concentration 10/50 μM; for IC50: read-out: Absolute IC50
Protocol: as §1

[29] = system: UO.31; details: CTG, 72 hours; for % inhibition at top conc.: highest concentration 10/50 μM; for IC50: read-out: Absolute IC50
Protocol: as §1

[30] = Homo sapiens, read-out: Absolute IC50

N.N.[Cl][Pt][Cl] [Cisplatin, reference compound]
% inhibition at top conc. [1]: 90.30% | % inhibition at top conc. [2]: 81.11% | IC50 [2]: 4400 nM | % inhibition at top conc. [3]: 99.92% | IC50 [3]: 4520 nM | % inhibition at top conc. [4]: 96.44% | IC50 [4]: 1180 nM | % inhibition at top conc. [5]: 94.45% | IC50 [5]: 8670 nM | % inhibition at top conc. [6]: 85.71% | % inhibition at top conc. [7]: 88.74% | IC50 [7]: 4100 nM | % inhibition at top conc. [8]: 97.32% | IC50 [8]: 11800 nM | % inhibition at top conc. ([9]; CTG): 90.70% | IC50 ([9]; CTG): 5860 nM | % inhibition at top conc. [10]: 99.96% | IC50 [10]: 4430 nM | % inhibition at top conc. [11]: 99.34% | IC50 [11]: 8610 nM | % inhibition at top conc. [12]: 99.99% | IC50 [12]: 770 nM | % inhibition at top conc. [13]: 89.16% | IC50 [13]: 5170 nM | % inhibition at top conc. [14]: 98.85% | IC50 [14]: 14300 nM | % inhibition at top conc. [15]: 94.12% | IC50 [15]: 2690 nM | % inhibition at top conc. [16]: 96.72% | % inhibition at top conc. [17]: 87.03% | IC50 [17]: 5050 nM | % inhibition at top conc. [18]: 99.97% | IC50 [18]: 2190 nM | % inhibition at top conc. [19]: 99.99% | IC50 [19]: 1560 nM | % inhibition at top conc. [20]: 99.81% | IC50 [20]: 10200 nM | % inhibition at top conc. ([21]; CTG): 67.02% | IC50 ([21]; CTG): 66100 nM | % inhibition at top conc. [22]: 99.45% | IC50 [22]: 370 nM | % inhibition at top conc. ([23]; CTG): 97.45% | IC50 ([23]; CTG): 6070 nM | % inhibition at top conc. [24]: 98.93% | IC50 [24]: 5300 nM | % inhibition at top conc. [25]: 94.93% | IC50 [25]: 5650 nM | % inhibition at top conc. [26]: 85.52% | IC50 [26]: 5340 nM | % inhibition at top conc. [27]: 95.72% | IC50 [27]: 3150 nM | % inhibition at top conc. [28]: 99.97% | IC50 [28]: 4530 nM | % inhibition at top conc. [29]: 97.89% | IC50 [29]: 4230 nM

Cc1ccc(C(=O)Nc2cc(N3CCNCC3)ccc2-c2ccc(/C=C/C(=O)NO)cc2C)cc1.Cl [ZZY-003]
% inhibition at top conc. [1]: 96.26% | IC50 [1, 30]: 1610 nM | % inhibition at top conc. [2]: 97.14% | IC50 ([2]; Homo sapiens): 330 nM | % inhibition at top conc. [3]: 99.35% | IC50 [3]: 9320 nM | % inhibition at top conc. [4]: 99.84% | IC50 ([4]; Homo sapiens, CNE2Z): 1520 nM | % inhibition at top conc. [5]: 96.79% | IC50 ([5]; Homo sapiens): 5840 nM | % inhibition at top conc. [6]: 92.06% | IC50 [6, 30]: 1810 nM | % inhibition at top conc. [7]: 99.41% | IC50 ([7]; Homo sapiens): 2280 nM | % inhibition at top conc. [8]: 99.97% | IC50 ([8]; Homo sapiens): 1570 nM | % inhibition at top conc. ([9]; CTG): 99.98% | IC50 ([9]; Homo sapiens, HepG2, CTG): 840 nM | % inhibition at top conc. [10]: 99.92% | IC50 ([10]; Homo sapiens): 1270 nM | % inhibition at top conc. [11]: 99.89% | IC50 ([11]; Homo sapiens): 1240 nM | % inhibition at top conc. [12]: 99.99% | IC50 ([12]; Homo sapiens): 210 nM | % inhibition at top conc. [13]: 99.68% | IC50 ([13]; Homo sapiens): 1590 nM | % inhibition at top conc. [14]: 98.03% | IC50 [14]: 640 nM | % inhibition at top conc. [15]: 99.24% | IC50 ([15]; Homo sapiens): 1740 nM | % inhibition at top conc. [16]: 95.22% | IC50 [16, 30]: 2210 nM | % inhibition at top conc. [17]: 98.70% | IC50 ([17]; Homo sapiens): 9950 nM | % inhibition at top conc. [18]: 99.99% | IC50 ([18]; Homo sapiens): 460 nM | % inhibition at top conc. [19]: 99.93% | IC50 ([19]; Homo sapiens): 310 nM | % inhibition at top conc. [20]: 99.95% | IC50 ([20]; Homo sapiens): 3170 nM | % inhibition at top conc. ([21]; CTG): 99.86% | IC50 ([21]; Homo sapiens, BT-474, CTG): 510 nM | % inhibition at top conc. [22]: 98.88% | IC50 ([22]; Homo sapiens): 1400 nM | % inhibition at top conc. ([23]; CTG): 99.85% | IC50 ([23]; Homo sapiens, K562, CTG): 460 nM | % inhibition at top conc. [24]: 97.98% | IC50 ([24]; Homo sapiens): 5130 nM | % inhibition at top conc. [25]: 96.23% | IC50 ([25]; Homo sapiens): 4360 nM | % inhibition at top conc. [26]: 96.56% | IC50 ([26]; Homo sapiens): 1380 nM | % inhibition at top conc. [27]: 99.94% | IC50 ([27]; Homo sapiens): 430 nM | % inhibition at top conc. [28]: 99.98% | IC50 ([28]; Mus musculus): 1030 nM | % inhibition at top conc. [29]: 99.92% | IC50 ([29]; Homo sapiens): 4560 nM
